Results from patent US20240350494A1, “THERAPEUTIC MODULATION OF INTEGRINS” (Pliant Therapeutics, Inc., priority 2021, published 2024).
Entries after “also recorded” stand apart in the source; their conditions may differ.

Key:
lung Col1a1 expression = assay: Precision cut lung slices, chronic bleomycin exposure, Col1a1 expression; format: cell-based, mice (C57BL/6); details: 7 days culture
Protocol: (§1) Mice (C57BL/6) were administered 3 U/kg of bleomycin (Teva Pharmaceuticals; North Wales, PA) on Day 0 and 1 U/kg of bleomycin on days 14, 28, 42 and 56 via oropharyngeal aspiration while under anesthesia. At day 70, 14 days after the final bleomycin insult, precision cut lung slices were obtained. Following euthanization, 2% low gelling temp agarose was injected into the mouse lungs via the trachea. […] The lobes were then subjected to precision slicing to obtain samples for culture using a microtome (Compresstome VF-300-OZ, Precisionary; Greenville, NC). Individual slices were distributed in a multiwell culture plate and cultured for 7 days under control (DMSO) and test compound conditions. The viability of the slices over the course of culturing was confirmed by WST-1 assay of mitochondrial activity.
During the culture period, slices in the control group were treated with DMSO and slices in the test group were treated with a DMSO solution of one of: the selective antibody αVβ6 inhibitor 3G9; the αVβ1-selective small molecule inhibitor; a combination of the selective antibody αVβ6 inhibitor 3G9 and the αVβ1-selective small molecule inhibitor; compound 5; and the small molecule ALK5 inhibitor. The selective αVβ1 and αVβ6 integrin inhibitors were analyzed at ≥their respective IC90 concentrations for inhibition of TGF-beta activation. Compound 5 was run at approximate IC50 for inhibition of TGF-beta activation by αVβ6.
as §1, with “following” for “after”
During the culture period, slices in the control group were treated with DMSO and slices in the test group were treated with a DMSO solution of one of: compound 5; nintedanib; pirfenidone; a combination of nintedanib and compound 5; a combination of pirfenidone and compound 5; or the small molecule ALK5 inhibitor. Compound 5 was […] effective to equal or exceed its respective IC50 values at αVβ6 and αVβ1. […] Nintendanib and pirfenidone were analyzed at concentrations 10× their reported therapeutic concentrations.

pSMAD2:SMAD2 ratio = pSMAD2:SMAD2 ratio in BAL of healthy subjects (20 or 40 mg daily); format: in vivo, human; details: all subjects with Cmax above 700 ng/mL; Day 7; FIG. 6G
Protocol: In order to evaluate the change of pSMAD2 as a biomarker of TGF-β activity following administration of an integrin inhibitor, and to determine a therapeutically effective dosage and an effective blood plasma Cmax of the integrin inhibitor, healthy subjects were administered compound 5, a dual selective αVβ6/αVβ1-integrin inhibitor, and the corresponding Cmax levels and decrease in phosphorylation levels and were determined.
Healthy non-smoking adult males without history of lung disease were selected as subjects and were randomized into 4 cohorts. Broncoalevaolar lavage samples were obtained from all subjects 1 day prior to start of treatment. Cohorts 1 and 2 were administered 20 mg of a compound daily, wherein 3 subjects were administered the dual selective αVβ6/αVβ1-integrin inhibitor (compound 5) per every 1 subject receiving a placebo compound. Cohorts 3 and 4 were administered 40 mg of a compound daily, wherein 3 subjects were administered the dual selective αVβ6/αVβ1-integrin inhibitor (compound 5) per every 1 subject receiving a placebo compound. BAL samples and blood samples were taken from all subjects on Day −1 (baseline) and on Day 7 (end of treatment).

SMAD3 phosphorylation = assay: pSMAD3/SMAD3 in lung tissue and BALF of healthy mice; format: in vivo; details: 4 days of treatment, dose dependent
Source text: It has been previously shown that inhibition of αVβ6 in the lung can be detected though measurement of phospho-SMAD (pSMAD) in alveolar macrophages. Alveolar macrophages are known to operate in a unique niche in the lung, distinct from interstitial macrophages. SMAD3 is a downstream target of the active TGF-β cytokine binding its receptor and in alveolar macrophages it is phosphorylated by homoeostatic levels of TGF-β. Accordingly, it was desirable to know whether inhibition of TGF-β activation using the disclosed compounds would result in reduced SMAD2 and SMAD3 phosphorylation.
FIG. 2A is a graph of PSMAD3/SMAD3 in lung tissue from healthy mice administered PBS vehicle and varying levels of compound 5 for 4 days. FIG. 2B is a graph of PSMAD3/SMAD3 in BALF drawn from the same healthy mice administered PBS vehicle and varying levels of compound 5 for 4 days.

PRO-C3 and PRO-C6 = assay: Phase 2a trial in IPF, serum biomarkers of collagen synthesis; format: in vivo, human; details: IPF participants
Source text: FIG. 27 (PRO—C3 Type III collagen synthesis neoepitope) and FIG. 28 (PRO—C6 TypeVI collagen synthesis neoepitope) compare serum biomarkers of collagen synthesis in Compound 5 groups versus placebo groups. Compound 5 decreased serum biomarkers of collagen synthesis relative to placebo. […] LS=Least Squares, SEM=Standard Error of Mean.

For `COCCN(CCCCc1ccc2c(n1)NCCC2)CC[C@H](Nc1ncnc2ccccc12)C(=O)O` [Compound 5, (S)-4-((2-methoxyethyl)(4-(5,6,7,8-tetrahydro-1,8-naphthyridin-2-yl)butyl)amino)-2-(quinazolin-4-ylamino)butanoic acid], the “lung Col1a1 expression, normalized to DMSO control slices” value (lung Col1a1 expression; Compound 5 at approximate IC50 (αVβ6), selective inhibitors at ≥IC90, ALK5 inhibitor at 10× IC50, FIG. 3B) was “decreased lung Col1a1 expression substantially”, the “decrease of lung Col1a1 expression compared with combined 3G9 and αVβ1-selective inhibitor” value (lung Col1a1 expression; FIG. 3B) was “to a greater extent than combined administration” and the “lung slice Col1a1 expression compared to DMSO vehicle control slices” value (lung Col1a1 expression; nintedanib and pirfenidone at 10× therapeutic concentrations, ALK5 inhibitor at 10× IC50, FIG. 4A) was “substantial, statistically significant (p<0.01 vs vehicle) decrease”. For the same compound, the “reduction in pSMAD2:SMAD2 ratio in BAL compared to the placebo group” value (pSMAD2:SMAD2 ratio) was ≥ 50%, the “SMAD3 phosphorylation (PSMAD3/SMAD3) in lung tissue” value (SMAD3 phosphorylation; FIG. 2A) was “approximately 50 % of the untreated levels” and the “SMAD3 phosphorylation (PSMAD3/SMAD3) in cells isolated from BALF” value (SMAD3 phosphorylation; FIG. 2B) was “approximately 50 % of the untreated levels”. For the same compound, the “change from baseline of serum PRO-C3 (type III collagen synthesis) vs. placebo” value (PRO-C3 and PRO-C6; FIG. 27) was “decreased; also recorded: reduced in participants receiving Compound 5 vs. placebo (not significant)” and the “change from baseline of serum PRO-C6 (type VI collagen synthesis) vs. placebo” value (PRO-C3 and PRO-C6; FIG. 28) was “decreased; also recorded: reduced in participants receiving Compound 5 vs. placebo (not significant)”.
